Measurements published in article PMC6440977, “Nucleoside analogue activators of cyclic AMP-independent protein kinase A of Trypanosoma” (Nature Communications, 2019).
Values joined by “and” are separate entries in the source; they are usually repeats but may differ in a detail not shown here. Identical values can stand only once. “Also recorded” adds a separate entry of the source. Like-named read-outs stand apart in the source and are kept apart here.

Legend:
[1] = system: T. brucei PKA holoenzyme (Ty1-PKAC1); format: biochemical, Trypanosoma brucei; details: for in vitro kinase assay [CPM] / in vitro kinase assay [CPM], PKI: 5 µM PKI(5-24); for in vitro kinase assay [CPM], PKI: control without cyclic nucleotide
[2] = system: T. brucei PKA holoenzyme (PKAR-Ty1); format: biochemical, Trypanosoma brucei; details: control without cyclic nucleotide, 5 µM PKI(5-24)
[3] = system: T. brucei PKA holoenzyme (HA-PKAC2); format: biochemical, Trypanosoma brucei; details: control without cyclic nucleotide, 5 µM PKI(5-24)
[4] = molecular target: T. brucei PKA (Trypanosoma brucei brucei, UniProt Q9GU80); experiment: In vivo PKA reporter assay (VASP Ser-157 phosphorylation, western blot); format: cell-based; details: for % VASP phosphorylation: CpdA 10 µM, replicates; for effect on in vivo PKA activity (VASP phosphorylation), in words: wild type background; for EC50: read-out: EC50 in vivo PKA assay, VASP reporter, 15 min treatment, mean ± SD;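 for % VASP phosphorylation: Phosphorylated VASP as percent of total VASP band signal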;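 for all read-outs here: T. brucei cells expressing human VASP as heterologous PKA substrate, compound exposure at 37 °C, western blot of phospho (50 kDa) versus unphosphorylated (46 kDa) VASP band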
[5] = system: intracellular cAMP; experiment: Cyclic AMP measurement (intracellular cAMP content); format: cell-based, Trypanosoma brucei; details: for pmol cAMP / 10^9 cells: independent replicates
[6] = system: cAMP release into the medium; experiment: Fraction of cAMP in cell supernatant versus total cell lysate; details: CpdA treatment 10 µM, 15 min
[7] = molecular target: T. brucei PKAR-PKAC1 holoenzyme (Trypanosoma brucei, UniProt Q9GU80); experiment: biochemical; format: biochemical; details: for In vitro kinase assay: technical replicates
[8] = molecular target: T. brucei PKAR(199–499) (Trypanosoma brucei, UniProt Q9GU80); experiment: biochemical; format: binding; design: Thermodynamics (ITC) -TΔS / Thermodynamics (ITC) ΔG / Thermodynamics (ITC) ΔH: unit: kcal/mol
[9] = molecular target: T1, human PKARIα (Homo sapiens, UniProt P10644); experiment: Binding by isothermal titration calorimetry (ITC)
T1 construct: The full length ORFs (amplified with primers introducing the respective); 6xHis followed by TEV site (N); made in house; host or cells: E. coli Rosetta D3

[10] = system: T. brucei ∆pkar/∆pkar (pkar KO) cells; experiment: microbe, parasite or virus in culture; format: cell-based, Trypanosoma brucei; details: Trypanosoma brucei, 72 h, read-out: IC50 growth pkar KO
[11] = system: T. brucei BSF cells (WT); experiment: Alamar blue cell viability assay, wild type; details: Trypanosoma brucei, 72 h, read-out: IC50 growth WT;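 note: trypanosomes seeded at 5×10^3 per ml and grown 72 h with compound, then resazurin 0.5 mM added for 4 h as the viability read-out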

T. brucei PKAR(199–499), sequence (Q9GU80 entry or part of it): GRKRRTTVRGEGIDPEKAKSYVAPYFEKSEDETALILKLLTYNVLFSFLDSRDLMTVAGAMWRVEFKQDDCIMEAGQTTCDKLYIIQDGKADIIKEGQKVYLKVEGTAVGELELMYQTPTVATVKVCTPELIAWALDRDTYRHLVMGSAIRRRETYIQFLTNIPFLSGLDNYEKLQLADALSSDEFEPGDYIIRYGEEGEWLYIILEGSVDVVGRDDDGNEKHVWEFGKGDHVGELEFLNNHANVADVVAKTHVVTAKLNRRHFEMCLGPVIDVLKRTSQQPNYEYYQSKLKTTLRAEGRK
T. brucei PKAR-PKAC1 holoenzyme, sequence (Q38DR5 entry or part of it): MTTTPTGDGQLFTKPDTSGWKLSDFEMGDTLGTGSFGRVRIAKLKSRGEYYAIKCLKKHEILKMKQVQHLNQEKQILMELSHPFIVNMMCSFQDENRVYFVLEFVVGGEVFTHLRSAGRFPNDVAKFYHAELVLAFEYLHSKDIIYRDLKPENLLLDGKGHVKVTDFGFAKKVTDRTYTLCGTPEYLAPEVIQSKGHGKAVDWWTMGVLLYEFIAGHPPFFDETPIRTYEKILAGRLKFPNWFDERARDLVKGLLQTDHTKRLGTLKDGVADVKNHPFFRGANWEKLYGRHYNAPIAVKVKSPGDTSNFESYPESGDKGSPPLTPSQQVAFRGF
T. brucei PKAR-PKAC1 holoenzyme, sequence (Q9GU80 entry or part of it): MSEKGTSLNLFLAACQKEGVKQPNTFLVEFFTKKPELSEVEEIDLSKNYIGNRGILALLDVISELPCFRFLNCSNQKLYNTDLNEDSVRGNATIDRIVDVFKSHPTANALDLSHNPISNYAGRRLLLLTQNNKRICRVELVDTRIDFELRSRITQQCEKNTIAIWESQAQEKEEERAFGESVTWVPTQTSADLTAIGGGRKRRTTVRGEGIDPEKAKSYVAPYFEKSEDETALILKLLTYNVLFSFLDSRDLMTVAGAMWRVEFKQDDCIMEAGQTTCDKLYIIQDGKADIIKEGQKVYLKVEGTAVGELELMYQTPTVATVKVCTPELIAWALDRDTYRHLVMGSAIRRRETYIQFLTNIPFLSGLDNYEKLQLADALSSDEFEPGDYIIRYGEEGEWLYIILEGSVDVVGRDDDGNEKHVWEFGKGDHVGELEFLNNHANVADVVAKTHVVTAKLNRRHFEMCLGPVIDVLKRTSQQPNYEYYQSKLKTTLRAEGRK
T. brucei PKA, sequence (Q38DS1 entry or part of it): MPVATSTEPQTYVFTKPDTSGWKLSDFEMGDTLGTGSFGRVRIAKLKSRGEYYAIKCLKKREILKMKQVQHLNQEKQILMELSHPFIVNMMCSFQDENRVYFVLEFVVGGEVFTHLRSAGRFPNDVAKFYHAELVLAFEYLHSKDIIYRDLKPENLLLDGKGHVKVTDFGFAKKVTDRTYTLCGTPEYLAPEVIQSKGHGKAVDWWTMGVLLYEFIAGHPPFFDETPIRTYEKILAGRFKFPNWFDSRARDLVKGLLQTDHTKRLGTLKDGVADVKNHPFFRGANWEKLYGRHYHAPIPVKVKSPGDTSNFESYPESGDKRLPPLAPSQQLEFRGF
T. brucei PKA, sequence (Q38DR5 entry or part of it, further chain): as the sequence (Q38DR5 entry or part of it) above
T1 sequence (P10644 whole entry): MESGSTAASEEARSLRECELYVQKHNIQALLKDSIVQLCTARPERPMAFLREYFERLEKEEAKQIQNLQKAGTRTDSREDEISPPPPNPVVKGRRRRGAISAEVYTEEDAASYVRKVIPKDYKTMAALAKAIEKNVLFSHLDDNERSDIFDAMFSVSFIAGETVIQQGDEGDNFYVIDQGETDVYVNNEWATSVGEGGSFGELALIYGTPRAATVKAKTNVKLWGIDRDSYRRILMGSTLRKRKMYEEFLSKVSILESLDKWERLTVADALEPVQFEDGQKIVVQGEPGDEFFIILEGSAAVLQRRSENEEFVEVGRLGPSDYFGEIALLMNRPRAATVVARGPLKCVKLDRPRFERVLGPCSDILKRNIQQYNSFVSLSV

In the case of PKI(5–24), the “in vitro kinase assay [CPM]” value ([1]; Ty1-PKAC1#1) is reported as 1999.9 CPM, the “in vitro kinase assay [CPM]” value ([1]; Ty1-PKAC1#2) is reported as 1386.5 CPM and the “in vitro kinase assay [CPM]” value ([1]; Ty1-PKAC1-dead#11) is reported as 834.7 CPM. For the same compound, the “in vitro kinase assay [CPM]” value ([1]; Ty1-PKAC1-dead#12) was 571.7 CPM, the “in vitro kinase assay [CPM]” value ([1]; Ty1-PKAC1-dead#14) was 1493.5 CPM and the “in vitro kinase assay [CPM]” value ([1]; pull down from WT cells (negative control)) was 398.6 CPM. The “phosphorylation of kemptide, in words” value ([1]; 5 µM inhibitor) was “inhibited”, the “in vitro kinase assay [CPM], PKI” value ([1]; Supp Fig 3b) was 963.87 CPM and the “in vitro kinase assay [CPM], PKI” value ([1]; Supp Fig 3c) was 528.13 CPM. For the same compound, the “in vitro kinase assay [CPM], PKI” value [2] was 1399.6 CPM and the “in vitro kinase assay [CPM], PKI” value [3] was 483.2 CPM.
With COc1ccc(C2=NN(C3CCCCCC3)C(=O)[C@@H]3CC=CC[C@H]23)cc1OCCCCOc1ccc(-c2nn[nH]n2)cc1 [CpdA] the “% VASP phosphorylation” value ([4]; 0 min) was 37.2015% and 33.1548% and 30.9406%, the “% VASP phosphorylation” value ([4]; 5 min) was 28.9269% and 25.7882% and 23.4179% and the “% VASP phosphorylation” value ([4]; 10 min) was 28.8598% and 22.1225% and 21.1026%. For the same compound, the “% VASP phosphorylation” value ([4]; 15 min) was 26.7433% and 23.5931% and 18.9766%, the “effect on in vivo PKA activity (VASP phosphorylation), in words” value [4] was “did not elicit any change” and the “increase of intracellular cAMP content” value ([5]; 10 µM, 15 min) was “up to 600 fold”. The “pmol cAMP / 10^9 cells” value ([5]; 10 µM, 15 min) was 7046.18 pmol cAMP / 10^9 cells and 6980.91 pmol cAMP / 10^9 cells and 7465.44 pmol cAMP / 10^9 cells and 6294.38 pmol cAMP / 10^9 cells and 9321.55 pmol cAMP / 10^9 cells and 2818.14 pmol cAMP / 10^9 cells, the “% cAMP, total, mean” value ([5]; CpdA treatment 10 µM, 15 min, total cAMP content set to 100%, mean of technical replicates) was 94.1035% and the “% cAMP, total” value ([5]; CpdA treatment 10 µM, 15 min, total cAMP content set to 100%, technical replicates) was 100% and 88.2071%. The “nM cAMP, total” value ([5]; CpdA treatment 10 µM, 15 min, total, technical replicates) was 1891.66 nM and 1668.58 nM, the “% cAMP, supernatant, mean” value ([6]; mean of technical replicates) was 3.201% and the “nM cAMP, supernatant” value ([6]; technical replicates) was 74.7051 nM and 46.4145 nM. The “% cAMP, supernatant” value ([6]; total cAMP content set to 100%) was 3.949% and 2.454%.
Nc1ncnc2c1c(I)cn2[C@@H]1O[C@H](CO)[C@@H](O)[C@H]1O [5-I-Tu, 7-Iodo-7-deazaadenosine] was tested, and the EC50 [4] was 390 ± 20 nM, the EC50 [7] was 203 ± 79 nM and the “In vitro kinase assay” value ([7]; 0.001 µM) was 0.15 U/ml and 0.13 U/ml. The “In vitro kinase assay” value ([7]; 0.05 µM) was 0.22 U/ml and 0.25 U/ml, the “In vitro kinase assay” value ([7]; 0.1 µM) was 0.4 U/ml and 0.36 U/ml and the “In vitro kinase assay” value ([7]; 0.2 µM) was 0.45 U/ml. The “In vitro kinase assay” value ([7]; 0.39 µM) was 0.75 U/ml and 0.61 U/ml, the “In vitro kinase assay” value ([7]; 0.78 µM) was 0.77 U/ml and 0.8 U/ml and the “In vitro kinase assay” value ([7]; 1.56 µM) was 0.79 U/ml and 0.91 U/ml. For the same compound, the “In vitro kinase assay” value ([7]; 3.13 µM) was 0.81 U/ml and 0.96 U/ml, the Kd [8] was 32 ± 9 nM and the “Thermodynamics (ITC) -TΔS” value ([8]; independent replicates) was 6.36 and 3.65 and 4.67. The “Thermodynamics (ITC) ΔG” value ([8]; independent replicates) was -10.1 and -10.5, the “Thermodynamics (ITC) ΔH” value ([8]; independent replicates) was -16.5 and -14.1 and -14.8 and the “binding to purified human PKARIα, in words” value [9] was “did not bind”. For the same compound, the IC50 [10] was 346 ± 41 nM and the IC50 [11] was 330 ± 38 nM.
With Nc1ncnc2c1c(Br)cn2[C@@H]1O[C@H](CO)[C@@H](O)[C@H]1O [5-Br-Tu, 7-Bromo-7-deazaadenosine] the EC50 [4] was 625 ± 66 nM, the EC50 [7] was 1700 ± 1400 nM and the “In vitro kinase assay” value ([7]; 0.049 µM) was 0.15 U/ml and 0.17 U/ml. For the same compound, the “In vitro kinase assay” value ([7]; 0.098 µM) was 0.25 U/ml and 0.22 U/ml, the “In vitro kinase assay” value ([7]; 0.195 µM) was 0.27 U/ml and 0.24 U/ml and the “In vitro kinase assay” value ([7]; 0.391 µM) was 0.37 U/ml and 0.39 U/ml. The “In vitro kinase assay” value ([7]; 0.781 µM) was 0.53 U/ml and 0.48 U/ml, the “In vitro kinase assay” value ([7]; 1.563 µM) was 0.72 U/ml and 0.59 U/ml and the “In vitro kinase assay” value ([7]; 3.125 µM) was 0.85 U/ml and 0.72 U/ml. For the same compound, the “In vitro kinase assay” value ([7]; 6.25 µM) was 0.89 U/ml and 1.03 U/ml, the “In vitro kinase assay” value ([7]; 12.5 µM) was 1.09 U/ml and 1.13 U/ml and the “In vitro kinase assay” value ([7]; 25 µM) was 1.41 U/ml and 1.21 U/ml. The “In vitro kinase assay” value ([7]; 50 µM) was 1.29 U/ml and 1.22 U/ml, the IC50 [10] was 1010 ± 95 nM and the IC50 [11] was 874 ± 122 nM.
NC(=O)c1cn([C@@H]2O[C@H](CO)[C@@H](O)[C@H]2O)c2ncnc(N)c12 [Sangivamycin, 7-Carboxamido-7-deazaadenosine] showed an EC50 [4] of 39300 ± 5600 nM, an EC50 ([4]; listed as sangivamycin) of 39000 nM and an EC50 [7] of 10800 nM. For the same compound, the “In vitro kinase assay” value ([7]; 0.049 µM) was 0.15 U/ml and 0.17 U/ml, the “In vitro kinase assay” value ([7]; 0.098 µM) was 0.15 U/ml and the “In vitro kinase assay” value ([7]; 0.195 µM) was 0.19 U/ml and 0.18 U/ml. The “In vitro kinase assay” value ([7]; 0.391 µM) was 0.2 U/ml and 0.15 U/ml, the “In vitro kinase assay” value ([7]; 0.781 µM) was 0.17 U/ml and the “In vitro kinase assay” value ([7]; 1.563 µM) was 0.2 U/ml and 0.16 U/ml. For the same compound, the “In vitro kinase assay” value ([7]; 3.125 µM) was 0.22 U/ml and 0.24 U/ml, the “In vitro kinase assay” value ([7]; 6.25 µM) was 0.29 U/ml and 0.28 U/ml and the “In vitro kinase assay” value ([7]; 12.5 µM) was 0.33 U/ml and 0.31 U/ml. The “In vitro kinase assay” value ([7]; 25 µM) was 0.44 U/ml and 0.4 U/ml, the “In vitro kinase assay” value ([7]; 50 µM) was 0.44 U/ml and the IC50 [10] was 1550 ± 171 nM. For the same compound, the IC50 [11] was 713 ± 40 nM.
OCCN(CCO)c1nc(N2CCCCC2)c2nc(N(CCO)CCO)nc(N3CCCCC3)c2n1 [Dipyridamole] was tested, and the “induction of VASP phosphorylation in pkar knock out, in words” value ([4]; homozygous deletion of PKAR) was “no induction”, the EC50 [4] was 22400 ± 4200 nM and the “effect on in vivo PKA activity (VASP phosphorylation), in words” value [4] was “dose- and time-dependent induction”. For the same compound, the “effect in the in vitro kinase assay, in words” value [7] was “did not have any effect; also recorded: No effect”, the IC50 [10] was 16300 ± 1800 nM and the “change of intracellular cAMP content, in words” value ([5]; 100 µM) was “moderate increase”. For the same compound, the “pmol cAMP / 10^9 cells” value ([5]; 100 µM, 15 min, listed as Dip) was 61.8873 pmol cAMP / 10^9 cells and 63.0147 pmol cAMP / 10^9 cells and 44.8294 pmol cAMP / 10^9 cells and 64.5236 pmol cAMP / 10^9 cells and 80.946 pmol cAMP / 10^9 cells and 55.0958 pmol cAMP / 10^9 cells, the “pmol cAMP / 10^9 cells” value ([5]; 100 µM, 90 min, listed as Dip) was 47.769 pmol cAMP / 10^9 cells and 56.3468 pmol cAMP / 10^9 cells and 59.8493 pmol cAMP / 10^9 cells and 40.4717 pmol cAMP / 10^9 cells and 46.5418 pmol cAMP / 10^9 cells and 46.5962 pmol cAMP / 10^9 cells and the IC50 [11] was 9900 ± 1000 nM.
